In the supplement of paper PMC10307832 one finds relative viability data, which are given here for 5 compounds.

The test system of the first test is NCI-H522. Briefly: relative viability (nuclei count vs DMSO), 5 days (fraction); higher = more cells survive. The settings on record: first compound 20 µM. A digest of the protocol:
(§1)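 Dosing by pin tool came one day after lung cancer cell lines were seeded in 1536-well plates, using either one drug or a fixed anchor-drug dose plus five library-drug doses (not always all listed) in √10 steps. After 5 days, nuclei were counted on 4× images. Relative viability is treated-well nuclei count divided by vehicle-well nuclei count, and values are medians of duplicate plates.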
For the compound `COCC1(CO)C(=O)C2CCN1CC2` (stereo not drawn) [PRIMA-1MET] + Cc1nc(Nc2ncc(C(=O)Nc3c(C)cccc3Cl)s2)cc(N2CCN(CCO)CC2)n1 [Dasatinib] (partner 0.075 µM), the relative viability came out at 0.0665.

In another test the test system is NCI-H520. The test is described as above. The settings on record: first compound 0.2 µM. A digest of the protocol:
as §1
The compound `COCC1(CO)C(=O)C2CCN1CC2` (stereo not drawn) [PRIMA-1MET] + CCNC(=O)c1noc(-c2cc(C(C)C)c(O)cc2O)c1-c1ccc(CN2CCOCC2)cc1 [Luminespib] (partner 0.01 µM) came in with a relative viability of 0.214.
Still for that read-out and setting: the same measure for `COCC1(CO)C(=O)C2CCN1CC2` (stereo not drawn) [PRIMA-1MET] + COc1cccc2cc(-c3nc([C@H]4CC[C@H](C(=O)O)CC4)n4ncnc(N)c34)[nH]c12 [OSI-027] (partner 0.5 µM): 0.31; for `COCC1(CO)C(=O)C2CCN1CC2` (stereo not drawn) [PRIMA-1MET] + N=C(N)NC(=N)NCCc1ccccc1 [Phenformin] (partner 250 µM): 0.605; for `COCC1(CO)C(=O)C2CCN1CC2` (stereo not drawn) [PRIMA-1MET] + Nc1nc2[nH]cc(CCc3ccc(C(=O)N[C@@H](CCC(=O)O)C(=O)O)cc3)c2c(=O)[nH]1 [Pemetrexed] (partner 0.2 µM): 0.726.
Same read-out and setting: the same measure for `COCC1(CO)C(=O)C2CCN1CC2` (stereo not drawn) [PRIMA-1MET] + Cc1nc(Nc2ncc(C(=O)Nc3c(C)cccc3Cl)s2)cc(N2CCN(CCO)CC2)n1 [Dasatinib] (partner 0.075 µM): 0.203.

Still in this test, the particulars now being: first compound 0.6325 µM.
In the case of `COCC1(CO)C(=O)C2CCN1CC2` (stereo not drawn) [PRIMA-1MET] + CCNC(=O)c1noc(-c2cc(C(C)C)c(O)cc2O)c1-c1ccc(CN2CCOCC2)cc1 [Luminespib] (partner 0.01 µM), the relative viability was 0.215.
For the compound `COCC1(CO)C(=O)C2CCN1CC2` (stereo not drawn) [PRIMA-1MET] + COc1cccc2cc(-c3nc([C@H]4CC[C@H](C(=O)O)CC4)n4ncnc(N)c34)[nH]c12 [OSI-027] (partner 0.5 µM), the relative viability came to 0.213.
In turn, `COCC1(CO)C(=O)C2CCN1CC2` (stereo not drawn) [PRIMA-1MET] + N=C(N)NC(=N)NCCc1ccccc1 [Phenformin] (partner 250 µM) showed a relative viability of 0.501.
For the compound `COCC1(CO)C(=O)C2CCN1CC2` (stereo not drawn) [PRIMA-1MET] + Cc1nc(Nc2ncc(C(=O)Nc3c(C)cccc3Cl)s2)cc(N2CCN(CCO)CC2)n1 [Dasatinib] (partner 0.075 µM), the relative viability turned out to be 0.204.

Still in this test, the particulars now being: first compound 2 µM.
`COCC1(CO)C(=O)C2CCN1CC2` (stereo not drawn) [PRIMA-1MET] + CCNC(=O)c1noc(-c2cc(C(C)C)c(O)cc2O)c1-c1ccc(CN2CCOCC2)cc1 [Luminespib] (partner 0.01 µM) displayed a relative viability of 0.186.
For the compound `COCC1(CO)C(=O)C2CCN1CC2` (stereo not drawn) [PRIMA-1MET] + COc1cccc2cc(-c3nc([C@H]4CC[C@H](C(=O)O)CC4)n4ncnc(N)c34)[nH]c12 [OSI-027] (partner 0.5 µM), the relative viability was determined as 0.169.
`COCC1(CO)C(=O)C2CCN1CC2` (stereo not drawn) [PRIMA-1MET] + N=C(N)NC(=N)NCCc1ccccc1 [Phenformin] (partner 250 µM) showed a relative viability of 0.314.
For the compound `COCC1(CO)C(=O)C2CCN1CC2` (stereo not drawn) [PRIMA-1MET] + Nc1nc2[nH]cc(CCc3ccc(C(=O)N[C@@H](CCC(=O)O)C(=O)O)cc3)c2c(=O)[nH]1 [Pemetrexed] (partner 0.2 µM), the relative viability is 0.681.
`COCC1(CO)C(=O)C2CCN1CC2` (stereo not drawn) [PRIMA-1MET] + Cc1nc(Nc2ncc(C(=O)Nc3c(C)cccc3Cl)s2)cc(N2CCN(CCO)CC2)n1 [Dasatinib] (partner 0.075 µM) displayed a relative viability of 0.258.

The test is the same for the next values; noted with them: first compound 6.325 µM.
`COCC1(CO)C(=O)C2CCN1CC2` (stereo not drawn) [PRIMA-1MET] + CCNC(=O)c1noc(-c2cc(C(C)C)c(O)cc2O)c1-c1ccc(CN2CCOCC2)cc1 [Luminespib] (partner 0.01 µM) yielded a relative viability of 0.2.
`COCC1(CO)C(=O)C2CCN1CC2` (stereo not drawn) [PRIMA-1MET] + COc1cccc2cc(-c3nc([C@H]4CC[C@H](C(=O)O)CC4)n4ncnc(N)c34)[nH]c12 [OSI-027] (partner 0.5 µM): the relative viability was 0.197.
On the same count and under the same terms, the same measure for `COCC1(CO)C(=O)C2CCN1CC2` (stereo not drawn) [PRIMA-1MET] + N=C(N)NC(=N)NCCc1ccccc1 [Phenformin] (partner 250 µM): 0.289.
`COCC1(CO)C(=O)C2CCN1CC2` (stereo not drawn) [PRIMA-1MET] + Nc1nc2[nH]cc(CCc3ccc(C(=O)N[C@@H](CCC(=O)O)C(=O)O)cc3)c2c(=O)[nH]1 [Pemetrexed] (partner 0.2 µM) gave a relative viability of 0.647.
Compound `COCC1(CO)C(=O)C2CCN1CC2` (stereo not drawn) [PRIMA-1MET] + Cc1nc(Nc2ncc(C(=O)Nc3c(C)cccc3Cl)s2)cc(N2CCN(CCO)CC2)n1 [Dasatinib] (partner 0.075 µM) came in with a relative viability of 0.176.

Still in this test, the particulars now being: first compound 20 µM.
`COCC1(CO)C(=O)C2CCN1CC2` (stereo not drawn) [PRIMA-1MET] + CCNC(=O)c1noc(-c2cc(C(C)C)c(O)cc2O)c1-c1ccc(CN2CCOCC2)cc1 [Luminespib] (partner 0.01 µM) returned a relative viability of 0.203.
`COCC1(CO)C(=O)C2CCN1CC2` (stereo not drawn) [PRIMA-1MET] + COc1cccc2cc(-c3nc([C@H]4CC[C@H](C(=O)O)CC4)n4ncnc(N)c34)[nH]c12 [OSI-027] (partner 0.5 µM) returned a relative viability of 0.143.
Consider `COCC1(CO)C(=O)C2CCN1CC2` (stereo not drawn) [PRIMA-1MET] + N=C(N)NC(=N)NCCc1ccccc1 [Phenformin] (partner 250 µM), for which the relative viability was 0.155.
As for `COCC1(CO)C(=O)C2CCN1CC2` (stereo not drawn) [PRIMA-1MET] + Nc1nc2[nH]cc(CCc3ccc(C(=O)N[C@@H](CCC(=O)O)C(=O)O)cc3)c2c(=O)[nH]1 [Pemetrexed] (partner 0.2 µM), the relative viability turned out to be 0.421.
In turn, `COCC1(CO)C(=O)C2CCN1CC2` (stereo not drawn) [PRIMA-1MET] + Cc1nc(Nc2ncc(C(=O)Nc3c(C)cccc3Cl)s2)cc(N2CCN(CCO)CC2)n1 [Dasatinib] (partner 0.075 µM) had a relative viability of 0.13.

In a further test the test system is PC-3 [JPC-3]. The description is as above. The settings on record: first compound 0.2 µM. A digest of the protocol:
as §1
`COCC1(CO)C(=O)C2CCN1CC2` (stereo not drawn) [PRIMA-1MET] + CCNC(=O)c1noc(-c2cc(C(C)C)c(O)cc2O)c1-c1ccc(CN2CCOCC2)cc1 [Luminespib] (partner 0.01 µM): the relative viability was found to be 0.849.
Take `COCC1(CO)C(=O)C2CCN1CC2` (stereo not drawn) [PRIMA-1MET] + COc1cccc2cc(-c3nc([C@H]4CC[C@H](C(=O)O)CC4)n4ncnc(N)c34)[nH]c12 [OSI-027] (partner 0.5 µM): the relative viability was 0.709.
Turning to `COCC1(CO)C(=O)C2CCN1CC2` (stereo not drawn) [PRIMA-1MET] + N=C(N)NC(=N)NCCc1ccccc1 [Phenformin] (partner 250 µM), the relative viability worked out at 0.464.
Regarding `COCC1(CO)C(=O)C2CCN1CC2` (stereo not drawn) [PRIMA-1MET] + Nc1nc2[nH]cc(CCc3ccc(C(=O)N[C@@H](CCC(=O)O)C(=O)O)cc3)c2c(=O)[nH]1 [Pemetrexed] (partner 0.2 µM), the relative viability was determined as 1.06.
The same measure, in the same setting: the same measure for `COCC1(CO)C(=O)C2CCN1CC2` (stereo not drawn) [PRIMA-1MET] + Cc1nc(Nc2ncc(C(=O)Nc3c(C)cccc3Cl)s2)cc(N2CCN(CCO)CC2)n1 [Dasatinib] (partner 0.075 µM): 0.977.

Staying with this test, now noted: first compound 0.6325 µM.
Consider `COCC1(CO)C(=O)C2CCN1CC2` (stereo not drawn) [PRIMA-1MET] + CCNC(=O)c1noc(-c2cc(C(C)C)c(O)cc2O)c1-c1ccc(CN2CCOCC2)cc1 [Luminespib] (partner 0.01 µM), for which the relative viability amounted to 0.649.
Regarding `COCC1(CO)C(=O)C2CCN1CC2` (stereo not drawn) [PRIMA-1MET] + COc1cccc2cc(-c3nc([C@H]4CC[C@H](C(=O)O)CC4)n4ncnc(N)c34)[nH]c12 [OSI-027] (partner 0.5 µM), the relative viability came out at 0.747.
The compound `COCC1(CO)C(=O)C2CCN1CC2` (stereo not drawn) [PRIMA-1MET] + N=C(N)NC(=N)NCCc1ccccc1 [Phenformin] (partner 250 µM) came in with a relative viability of 0.456.
